Laboratory results as given in patent publication US11795171B2, “Pyrrolotriazinones and imidazotriazinones as ubiquitin-specific protease 7 inhibitors” (Valo Health, Inc., priority 2014, dated 2023).

Target: T1, USP7 (Homo sapiens (Human), UniProt Q93009)
Test: USP7 Assay B (Ubitquin-Rhodamine110 Assay)
Type: biochemical
Settings: Ub-Rh110 substrate 25 nM

T1 sequence (Q93009 208-1102): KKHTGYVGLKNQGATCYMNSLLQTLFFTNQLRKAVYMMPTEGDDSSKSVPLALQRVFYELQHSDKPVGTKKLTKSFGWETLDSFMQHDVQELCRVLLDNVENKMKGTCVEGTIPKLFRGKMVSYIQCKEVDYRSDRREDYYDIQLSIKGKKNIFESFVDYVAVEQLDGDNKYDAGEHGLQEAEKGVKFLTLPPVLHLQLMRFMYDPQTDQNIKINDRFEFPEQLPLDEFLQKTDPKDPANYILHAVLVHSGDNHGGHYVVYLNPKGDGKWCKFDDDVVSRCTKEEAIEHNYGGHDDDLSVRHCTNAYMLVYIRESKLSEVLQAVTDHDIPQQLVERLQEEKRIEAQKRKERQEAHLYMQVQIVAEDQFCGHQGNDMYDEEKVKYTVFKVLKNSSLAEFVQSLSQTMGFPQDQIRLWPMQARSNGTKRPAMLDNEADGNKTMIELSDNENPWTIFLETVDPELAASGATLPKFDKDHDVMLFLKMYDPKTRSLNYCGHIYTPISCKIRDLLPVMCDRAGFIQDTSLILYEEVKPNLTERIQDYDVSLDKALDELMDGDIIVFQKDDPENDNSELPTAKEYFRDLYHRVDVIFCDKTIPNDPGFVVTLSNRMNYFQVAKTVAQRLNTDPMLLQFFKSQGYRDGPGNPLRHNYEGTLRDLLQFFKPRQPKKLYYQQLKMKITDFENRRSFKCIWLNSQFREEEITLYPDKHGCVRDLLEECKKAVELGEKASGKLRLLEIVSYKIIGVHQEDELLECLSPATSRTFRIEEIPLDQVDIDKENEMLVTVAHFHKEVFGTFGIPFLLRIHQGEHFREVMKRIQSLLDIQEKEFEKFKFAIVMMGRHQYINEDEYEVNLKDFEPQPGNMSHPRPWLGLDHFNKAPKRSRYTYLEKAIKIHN

Structure (SMILES)	IC50 [µM]
O=C(COc1ccc(Cl)c(Cl)c1)Nc1cc2c(=O)n(CC3(O)CCN(C(=O)C4CC4)CC3)cnn2c1 [Compound I-105, N-(3-((1-(cyclopropanecarbonyl)-4-hydroxypiperidin-4-yl)methyl)-4-oxo-3,4-dihydropyrrolo[2,1-f][1,2,4]triazin-6-yl)-2-(3,4-dichlorophenoxy)acetamide]	> 10
O=C(COc1cccc(Cl)c1Cl)Nc1cc2c(=O)n(CC3(O)CCN(C(=O)C4CC4)CC3)cnn2c1 [Compound I-106, N-(3-((1-(cyclopropanecarbonyl)-4-hydroxypiperidin-4-yl)methyl)-4-oxo-3,4-dihydropyrrolo[2,1-f][1,2,4]triazin-6-yl)-2-(2,3-dichlorophenoxy)acetamide]	1 to 10
Cc1ccc(C(=O)Nc2cc3c(=O)n(CC4(O)CCN(C(=O)C5CC5)CC4)cnn3c2)cc1C [Compound I-107, N-(3-((1-(cyclopropanecarbonyl)-4-hydroxypiperidin-4-yl)methyl)-4-oxo-3,4-dihydropyrrolo[2,1-f][1,2,4]triazin-6-yl)-3,4-dimethylbenzamide]	1 to 10
Cc1ccc(C(=O)Nc2cc3c(=O)n(CC4(O)CCN(C(=O)C5CC5)CC4)cnn3c2)cc1Cl [Compound I-108, 3-chloro-N-(3-((1-(cyclopropanecarbonyl)-4-hydroxypiperidin-4-yl)methyl)-4-oxo-3,4-dihydropyrrolo[2,1-f][1,2,4]triazin-6-yl)-4-methylbenzamide]	> 10
Cc1ccc(C)c(C(=O)Nc2cc3c(=O)n(CC4(O)CCN(C(=O)C5CC5)CC4)cnn3c2)c1 [Compound I-109, N-(3-((1-(cyclopropanecarbonyl)-4-hydroxypiperidin-4-yl)methyl)-4-oxo-3,4-dihydropyrrolo[2,1-f][1,2,4]triazin-6-yl)-2,5-dimethylbenzamide]	> 10
O=C(Nc1cc2c(=O)n(CC3(O)CCN(C(=O)C4CC4)CC3)cnn2c1)c1ccccc1OC(F)(F)F [Compound I-110, N-(3-((1-(cyclopropanecarbonyl)-4-hydroxypiperidin-4-yl)methyl)-4-oxo-3,4-dihydropyrrolo[2,1-f][1,2,4]triazin-6-yl)-2-(trifluoromethoxy)benzamide]	> 10
O=C(Nc1cc2c(=O)n(CC3(O)CCN(C(=O)C4CC4)CC3)cnn2c1)c1ccc(Cl)cc1Cl [Compound I-111, 2,4-dichloro-N-(3-((1-(cyclopropanecarbonyl)-4-hydroxypiperidin-4-yl)methyl)-4-oxo-3,4-dihydropyrrolo[2,1-f][1,2,4]triazin-6-yl)benzamide]	> 10
O=C(Nc1cc2c(=O)n(CC3(O)CCN(C(=O)C4CC4)CC3)cnn2c1)c1csc(-c2ccccc2)n1 [Compound I-112, N-(3-((1-(cyclopropanecarbonyl)-4-hydroxypiperidin-4-yl)methyl)-4-oxo-3,4-dihydropyrrolo[2,1-f][1,2,4]triazin-6-yl)-2-phenylthiazole-4-carboxamide]	1 to 10
CC(CC(=O)Nc1cc2c(=O)n(CC3(O)CCN(C(=O)C4CC4)CC3)cnn2c1)c1ccc(Cl)cc1 (centres unmarked) [Compound I-113, 3-(4-chlorophenyl)-N-(3-((1-(cyclopropanecarbonyl)-4-hydroxypiperidin-4-yl)methyl)-4-oxo-3,4-dihydropyrrolo[2,1-f][1,2,4]triazin-6-yl)butanamide]	> 10
C=C(C)C(=O)Nc1ccccc1-c1ccc(C(=O)N2CCC(O)(Cn3cnn4cccc4c3=O)CC2)cc1 [Compound I-114, N-(4′-(4-hydroxy-4-((4-oxopyrrolo[2,1-f][1,2,4]triazin-3(4H)-yl)methyl)piperidine-1-carbonyl)-[1,1′-biphenyl]-2-yl)methacrylamide]	1 to 10
O=C(c1ccccc1)N1CCC(O)(Cn2cnn3c(-c4ccccc4)ncc3c2=O)CC1 [Compound I-115, 3-((1-benzoyl-4-hydroxypiperidin-4-yl)methyl)-7-phenylimidazo[5,1-f][1,2,4]triazin-4(3H)-one]	1 to 10

Target: T1, USP7
Test: USP7 Assay A (Ubitquin-Rhodamine110 Assay)
Type: biochemical
Settings: Ub-Rh110 substrate 25 nM
Experimental: Each assay was performed in a final volume of 15 μL in assay buffer containing 20 mM Tris-HCl (pH 8.0, (1M Tris-HCl, pH 8.0 solution; Corning 46-031-CM)), 1 mM GSH (L-Glutathione reduced: Sigma #G4251), 0.03% BGG ([…], Sigma, #G7516-25G), and 0.01% Triton X-100 (Sigma, #T9284-10L). Nanoliter quantities of either an 8-point or 10-point, 3-fold serial dilution in DMSO was pre-dispensed into assay plates (Perkin Elmer, ProxiPlate-384 F Plus, #6008269) for a final test concentration range of either 25 μM to 11 nM or 25 μM to 1.3 nM, respectively. The final concentration of the enzyme (USP7, construct USP7 (208-1102) 6*His, Viva Biotech) in the assay was […]. […] 5 μL of 2× enzyme was added to assay plates (pre-stamped with compound) preincubated with USP7 for 30 minutes and then 5 μL of 2×Ub-Rh110 was added to assay plates. Plates were incubated stacked for 20 minutes at room temperature before 5 μL of stop solution (final concentration of 10 mM citric acid in assay buffer (Sigma, #251275-500G)). Fluorescence was read on the Envision (Excitation at 485 nm and Emission at 535 nm; Perkin Elmer) or on the PheraSTAR (Excitation at 485 nm and Emission at 535 nm; BMG Labtech).
Data from USP7 Assays A and B were reported as percent inhibition (inh) compared with control wells based on the following equation: % inh=1−((FLU−AveLow)/(AveHigh−AveLow)) where FLU=measured Fluorescence (See Tables 2 and 3). AveLow=average Fluorescence of no enzyme control (n=16). AveHigh=average Fluorescence of DMSO control (n=16). IC50 values were determined by curve fitting of the standard 4 parameter logistic fitting algorithm included in the Activity Base software package: IDBS XE Designer Model205. Data is fitted using the Levenburg Marquardt algorithm. IC50 data from USP7 Assays A and B for the compounds of the invention can be found in Tables 2 and 3.

Structure (SMILES)	IC50 [µM]
Cc1ccc(-c2ncc3c(=O)n(CC4(O)CCN(C(=O)CC(C)n5cccn5)CC4)cnn23)cc1 (racemic) [Compound I-119, 3-([4-Hydroxy-1-[3-(1H-pyrazol-1-yl)butanoyl]piperidin-4-yl]methyl)-7-(4-methylphenyl)-3H,4H-imidazo[4,3-f][1,2,4]triazin-4-one]	1 to 10
O=C(c1ccc(F)cc1)N1CCC(O)(Cn2cnn3c(-c4ccc(F)cc4)ncc3c2=O)CC1 [Compound I-116, 3-((1-(4-fluorobenzoyl)-4-hydroxypiperidin-4-yl)methyl)-7-(4-fluorophenyl)imidazo[5,1-f][1,2,4]triazin-4(3H)-one]	> 10
Cc1ccc(-c2ncc3c(=O)n(CC4(O)CCN(C(=O)c5ccc(F)cc5)CC4)cnn23)cc1 [Compound I-117, 3-((1-(4-fluorobenzoyl)-4-hydroxypiperidin-4-yl)methyl)-7-p-tolylimidazo[1,5-f][1,2,4]triazin-4(3H)-one]	1 to 10
Cc1ccc(-c2ncc3c(=O)n(CC4(O)CCN(C(=O)C[C@H](C)n5cccn5)CC4)cnn23)cc1 [Compound I-120, (S)-3-((1-(3-(1H-pyrazol-1-yl)butanoyl)-4-hydroxypiperidin-4-yl)methyl)-7-(p-tolyl)imidazo[5,1-f][1,2,4]triazin-4(3H)-one]	1 to 10
Cc1ccc(-c2ncc3c(=O)n(CC4(O)CCN(C(=O)C[C@@H](C)n5cccn5)CC4)cnn23)cc1 [Compound I-121, (R)-3-((1-(3-(1H-pyrazol-1-yl)butanoyl)-4-hydroxypiperidin-4-yl)methyl)-7-(p-tolyl)imidazo[5,1-f][1,2,4]triazin-4(3H)-one]	> 10
O=C(c1cnc(C2CC2)o1)N1CCC(O)(Cn2cnn3c(-c4ccc(F)cc4)ncc3c2=O)CC1 [Compound I-122, 3-((1-(2-cyclopropyloxazole-5-carbonyl)-4-hydroxypiperidin-4-yl)methyl)-7-(4-fluorophenyl)imidazo[5,1-f][1,2,4]triazin-4(3H)-one]	1 to 10
O=C(c1ccc(-n2cccn2)cc1)N1CCC(O)(Cn2cnn3c(-c4ccc(F)cc4)ncc3c2=O)CC1 [Compound I-123, 3-((1-(4-(1H-pyrazol-1-yl)benzoyl)-4-hydroxypiperidin-4-yl)methyl)-7-(4-fluorophenyl)imidazo[5,1-f][1,2,4]triazin-4(3H)-one]	1 to 10
Cc1ccc(C(=O)N2CCC(O)(Cn3cnn4c(-c5ccc(F)cc5)ncc4c3=O)CC2)cc1 [Compound I-124, 7-(4-fluorophenyl)-3-((4-hydroxy-1-(4-methylbenzoyl)piperidin-4-yl)methyl)imidazo[5,1-f][1,2,4]triazin-4(3H)-one]	> 10
Cc1ccc(C(=O)N2CCC(O)(Cn3cnn4c(-c5ccc(F)cc5)ncc4c3=O)CC2)cc1F [Compound I-125, 3-((1-(3-fluoro-4-methylbenzoyl)-4-hydroxypiperidin-4-yl)methyl)-7-(4-fluorophenyl)imidazo[5,1-f][1,2,4]triazin-4(3H)-one]	> 10
